Where two headings read alike, the source gives them in different places.
Tests used:
Type in all cases: biochemical
MMP-1h = MMP-1h (Homo sapiens (Human), UniProt P03956); experiment: Inhibition constant (Ki) on MMP-1h; conditions: for Selectivity factor/MMP12, MMP-1h: Ki MMP-1h/Ki MMP-12
Text: (§1) The inhibition constant Ki of these compounds has been determined according to the protocol described by Devel et al, 2006, J. Biol. Chem. (7).
(§2) In this table I and also in table II below, “h” corresponds to human. All of the compounds have therefore been evaluated on human MMPs.

MMP-2h = MMP-2h (Homo sapiens (Human), UniProt P08253); experiment: Inhibition constant (Ki) on MMP-2h; conditions: for Selectivity factor/MMP12, MMP-2h: Ki MMP-2h/Ki MMP-12
MMP-2h, sequence (P08253 110-660): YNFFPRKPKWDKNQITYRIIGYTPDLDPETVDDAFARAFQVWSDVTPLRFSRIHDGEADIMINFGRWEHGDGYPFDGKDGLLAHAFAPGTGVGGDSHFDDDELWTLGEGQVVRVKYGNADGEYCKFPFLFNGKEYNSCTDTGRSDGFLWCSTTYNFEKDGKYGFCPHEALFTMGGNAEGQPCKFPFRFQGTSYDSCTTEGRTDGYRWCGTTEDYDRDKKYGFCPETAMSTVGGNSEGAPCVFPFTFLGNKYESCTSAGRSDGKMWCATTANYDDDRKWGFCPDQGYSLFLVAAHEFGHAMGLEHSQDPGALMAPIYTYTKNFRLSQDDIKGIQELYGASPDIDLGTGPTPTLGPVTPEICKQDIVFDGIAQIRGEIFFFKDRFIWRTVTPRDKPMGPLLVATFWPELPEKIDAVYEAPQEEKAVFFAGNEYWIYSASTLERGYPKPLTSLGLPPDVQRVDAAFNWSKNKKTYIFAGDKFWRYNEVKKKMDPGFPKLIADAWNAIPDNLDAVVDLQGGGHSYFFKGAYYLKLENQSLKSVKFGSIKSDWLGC
Procedure, shortened: (§3)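 Human MMPs; Ki by published enzyme-inhibition method.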

MMP-3h = MMP-3h (Homo sapiens (Human), UniProt P08254); experiment: Inhibition constant (Ki) on MMP-3h; conditions: for Selectivity factor/MMP12, MMP-3h: Ki MMP-3h/Ki MMP-12
MMP-3h, sequence (P08254 100-477): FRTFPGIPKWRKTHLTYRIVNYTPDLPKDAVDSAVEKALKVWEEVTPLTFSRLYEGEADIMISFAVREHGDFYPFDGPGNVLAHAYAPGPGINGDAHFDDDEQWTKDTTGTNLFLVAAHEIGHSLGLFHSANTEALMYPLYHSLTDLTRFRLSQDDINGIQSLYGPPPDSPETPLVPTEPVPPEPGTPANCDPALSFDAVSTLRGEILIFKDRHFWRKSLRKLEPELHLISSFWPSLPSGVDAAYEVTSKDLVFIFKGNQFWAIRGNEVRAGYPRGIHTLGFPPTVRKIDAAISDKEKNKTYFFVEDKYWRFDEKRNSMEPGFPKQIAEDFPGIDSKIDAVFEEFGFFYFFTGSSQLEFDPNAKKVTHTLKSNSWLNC
Procedure, shortened: as §3

MMP-7h = MMP-7h (Homo sapiens (Human), UniProt P09237); experiment: Inhibition constant (Ki) on MMP-7h; conditions: for Selectivity factor/MMP12, MMP-7h: Ki MMP-7h/Ki MMP-12
MMP-7h, sequence (P09237 95-267): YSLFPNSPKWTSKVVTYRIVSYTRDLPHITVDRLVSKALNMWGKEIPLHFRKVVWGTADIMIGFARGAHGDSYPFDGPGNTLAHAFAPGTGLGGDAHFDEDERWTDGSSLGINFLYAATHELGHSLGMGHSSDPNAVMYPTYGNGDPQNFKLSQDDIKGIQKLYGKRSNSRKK
Text: as §1, §2

MMP-8h = MMP-8h (Homo sapiens (Human), UniProt P22894); experiment: Inhibition constant (Ki) on MMP-8h; conditions: for Selectivity factor/MMP12, MMP-8h: Ki MMP-8h/Ki MMP-12
MMP-8h, sequence (P22894 101-467): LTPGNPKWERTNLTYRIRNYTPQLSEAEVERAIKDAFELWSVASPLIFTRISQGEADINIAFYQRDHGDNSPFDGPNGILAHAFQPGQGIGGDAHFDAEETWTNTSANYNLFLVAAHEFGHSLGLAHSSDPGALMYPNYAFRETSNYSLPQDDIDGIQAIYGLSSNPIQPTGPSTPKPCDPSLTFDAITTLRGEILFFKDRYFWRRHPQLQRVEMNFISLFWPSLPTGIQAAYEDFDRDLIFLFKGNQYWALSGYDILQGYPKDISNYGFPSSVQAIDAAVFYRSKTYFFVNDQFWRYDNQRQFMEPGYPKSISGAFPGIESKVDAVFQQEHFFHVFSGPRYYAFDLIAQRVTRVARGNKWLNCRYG

MMP-9h = MMP-9h (Homo sapiens (Human), UniProt P14780); experiment: Inhibition constant (Ki) on MMP-9h; conditions: for Selectivity factor/MMP12, MMP-9h: Ki MMP-9h/Ki MMP-12
MMP-9h, sequence (P14780 94-707): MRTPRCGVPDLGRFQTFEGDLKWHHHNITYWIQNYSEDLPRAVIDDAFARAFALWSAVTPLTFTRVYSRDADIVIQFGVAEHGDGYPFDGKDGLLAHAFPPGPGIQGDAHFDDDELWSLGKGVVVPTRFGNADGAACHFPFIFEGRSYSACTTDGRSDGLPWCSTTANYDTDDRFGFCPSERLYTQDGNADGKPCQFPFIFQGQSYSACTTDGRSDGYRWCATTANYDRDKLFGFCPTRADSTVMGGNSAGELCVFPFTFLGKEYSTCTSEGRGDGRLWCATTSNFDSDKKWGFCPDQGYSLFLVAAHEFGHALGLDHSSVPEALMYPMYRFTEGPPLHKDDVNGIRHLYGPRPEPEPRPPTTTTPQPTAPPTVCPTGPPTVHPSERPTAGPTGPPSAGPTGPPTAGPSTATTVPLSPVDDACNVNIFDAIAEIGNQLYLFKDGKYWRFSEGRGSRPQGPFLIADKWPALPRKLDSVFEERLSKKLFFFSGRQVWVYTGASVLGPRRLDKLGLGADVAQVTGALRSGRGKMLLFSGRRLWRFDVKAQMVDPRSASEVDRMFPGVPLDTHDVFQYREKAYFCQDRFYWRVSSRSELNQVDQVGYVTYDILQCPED
Procedure, shortened: as §3

MMP-10h = MMP-10h (Homo sapiens (Human), UniProt P09238); experiment: Inhibition constant (Ki) on MMP-10h; conditions: for Selectivity factor/MMP12, MMP-10h: Ki MMP-10h/Ki MMP-12
MMP-10h, sequence (P09238 99-476): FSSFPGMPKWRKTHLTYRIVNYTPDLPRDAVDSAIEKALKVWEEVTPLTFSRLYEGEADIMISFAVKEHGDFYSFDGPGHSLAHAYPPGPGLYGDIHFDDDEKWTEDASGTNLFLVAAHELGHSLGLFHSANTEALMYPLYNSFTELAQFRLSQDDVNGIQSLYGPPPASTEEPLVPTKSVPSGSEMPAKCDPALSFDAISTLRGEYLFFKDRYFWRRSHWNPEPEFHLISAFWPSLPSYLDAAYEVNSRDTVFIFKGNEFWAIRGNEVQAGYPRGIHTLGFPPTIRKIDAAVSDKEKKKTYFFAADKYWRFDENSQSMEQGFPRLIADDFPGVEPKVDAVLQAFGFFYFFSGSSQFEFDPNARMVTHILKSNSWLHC

MMP-12h = MMP-12h (Homo sapiens (Human), UniProt P39900); experiment: Inhibition constant (Ki) on MMP-12h; conditions: for Selectivity factor/MMP12, MMP-12h: Ki MMP-12h/Ki MMP-12
MMP-12h, sequence (P39900 106-470): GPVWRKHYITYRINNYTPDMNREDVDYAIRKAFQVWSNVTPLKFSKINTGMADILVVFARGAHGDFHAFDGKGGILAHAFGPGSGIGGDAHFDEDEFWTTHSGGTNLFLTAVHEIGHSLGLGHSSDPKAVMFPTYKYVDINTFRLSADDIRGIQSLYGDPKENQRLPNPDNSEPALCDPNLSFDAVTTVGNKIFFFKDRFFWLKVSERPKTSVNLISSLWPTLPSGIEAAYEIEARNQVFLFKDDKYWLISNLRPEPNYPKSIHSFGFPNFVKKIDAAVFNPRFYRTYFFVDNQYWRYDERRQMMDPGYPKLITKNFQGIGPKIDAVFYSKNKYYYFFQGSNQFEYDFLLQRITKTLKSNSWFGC

MMP-13h = MMP-13h (Homo sapiens (Human), UniProt P45452); experiment: Inhibition constant (Ki) on MMP-13h; conditions: for Selectivity factor/MMP12, MMP-13h: Ki MMP-13h/Ki MMP-12
Procedure, shortened: as §3

MMP-14h = MMP-14h (Homo sapiens (Human), UniProt P50281); experiment: Inhibition constant (Ki) on MMP-14h; conditions: for Selectivity factor/MMP12, MMP-14h: Ki MMP-14h/Ki MMP-12
Procedure, shortened: as §3

human MMPs = experiment: Inhibition of the panel of human MMPs (overall statements, selectivity); conditions: for selectivity factor F = Ki MMP-x/Ki MMP-12: other human MMPs versus MMP-12; for inhibitory activity toward MMPs (in words): summary of table I
[1] = read-out: Ki MMP-1h, human MMP-1
[2] = read-out: Ki MMP-2h, human MMP-2
[3] = read-out: Ki MMP-3h, human MMP-3
[4] = read-out: Ki MMP-7h, human MMP-7
[5] = read-out: Ki MMP-8h, human MMP-8
[6] = read-out: Ki MMP-9h, human MMP-9
[7] = read-out: Ki MMP-10h, human MMP-10
[8] = read-out: Ki MMP-12h, human MMP-12
[9] = read-out: Ki MMP-13h, human MMP-13
[10] = read-out: Ki MMP-14h, human MMP-14

MMP-1h, sequence (P03956 100-469): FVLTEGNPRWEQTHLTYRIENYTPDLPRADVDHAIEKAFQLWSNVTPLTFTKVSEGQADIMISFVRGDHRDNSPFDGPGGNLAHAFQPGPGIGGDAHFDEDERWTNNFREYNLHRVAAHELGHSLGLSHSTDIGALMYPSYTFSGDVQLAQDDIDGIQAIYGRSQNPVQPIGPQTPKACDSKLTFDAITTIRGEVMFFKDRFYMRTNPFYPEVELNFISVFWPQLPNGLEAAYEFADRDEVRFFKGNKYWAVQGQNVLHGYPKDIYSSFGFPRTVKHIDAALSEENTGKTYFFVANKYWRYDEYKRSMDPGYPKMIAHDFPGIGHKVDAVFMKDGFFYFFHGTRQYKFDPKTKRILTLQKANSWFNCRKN

Row | SMILES | Ki (MMP-1h; [1]) | Ki (MMP-2h; [2]) | Ki (MMP-3h; [3]) | Ki (MMP-7h; [4]) | Ki (MMP-8h; [5]) | Ki (MMP-9h; [6]) | Ki (MMP-10h; [7]) | Ki (MMP-12h; [8]) | Ki (MMP-13h; [9]) | Ki (MMP-14h; [10]) | selectivity factor F = Ki MMP-x/Ki MMP-12 (human MMPs) | inhibitory activity toward MMPs (in words) (human MMPs) | other results
1 | NC(=O)[C@H](CCC(=O)O)NC(=O)[C@H](CCC(=O)O)NC(=O)[C@@H](CC(=O)O)Cc1ccc(-c2cc(-c3ccccc3)cs2)cc1 [95 bis, (S)-5-amino-4-((S)-4-carboxy-2-((R)-3-carboxy-2-(4-(4-phenylthiophen-2-yl)benzyl)propanamido)butanamido)-5-oxopentanoic acid] | > 1000 nM | 401 nM | 579 nM | > 1000 nM | 520 nM | > 1000 nM | 80 nM | 0.3 nM | 198 nM | 118 nM | > 100 | – | Selectivity factor/MMP12, MMP-1h (MMP-1h): 3333; Selectivity factor/MMP12, MMP-2h (MMP-2h): 1340; Selectivity factor/MMP12, MMP-3h (MMP-3h): 1930; Selectivity factor/MMP12, MMP-7h (MMP-7h): 3333; Selectivity factor/MMP12, MMP-8h (MMP-8h): 1730; Selectivity factor/MMP12, MMP-9h (MMP-9h): 3333; Selectivity factor/MMP12, MMP-10h (MMP-10h): 270; improvement of affinity with respect to MMP-12 compared with compound 95 (factor) (MMP-12h): 6; Selectivity factor/MMP12, MMP-12h (MMP-12h): 1; Selectivity factor/MMP12, MMP-13h (MMP-13h): 660; Selectivity factor/MMP12, MMP-14h (MMP-14h): 395
2 | NC(=O)[C@H](CCC(=O)O)NC(=O)[C@H](CCC(=O)O)NC(=O)CCc1cc(-c2ccc(-c3cccc(Cl)c3)cc2)no1 [Compound 3, (S)-5-amino-4-((S)-4-carboxy-2-(3-(3-(3′-chlorobiphenyl-4-yl)isoxazol-5-yl)propanamido)butanamido)-5-oxopentanoic acid] | > 10000 nM | 76 nM | 62 nM | > 1000 nM | 181 nM | 565 nM | 47 nM | – | 40 nM | > 1000 nM | – | quite a powerful inhibitor of MMPs 2, 3, 10, 12 and 13 | –
3 | NC(=O)[C@H](CCC(=O)O)NC(=O)[C@H](CCC(=O)O)NC(=O)CCc1cn(-c2ccccc2)nn1 [Compound 24, (S)-5-amino-4-((S)-4-carboxy-2-(3-(1-phenyl-1H-1,2,3-triazol-4-yl)propanamido)butanamido)-5-oxopentanoic acid] | – | > 5000 nM | > 1000 nM | – | > 1000 nM | > 1000 nM | > 1000 nM | > 1000 nM | > 5000 nM | > 5000 nM | – | do not have any inhibitory activity | –
4 | NC(=O)[C@H](CCC(=O)O)NC(=O)[C@H](CCC(=O)O)NC(=O)CCc1cc(-c2ccccc2)on1 [Compound 25, (S)-5-amino-4-((S)-4-carboxy-2-(3-(5-phenylisoxazol-3-yl)propanamido)butanamido)-5-oxopentanoic acid] | – | > 1000 nM | > 5000 nM | – | 332 nM | > 5000 nM | > 1000 nM | 160 nM | 550 nM | > 1000 nM | – | MMP inhibitors | –
5 | NC(=O)[C@H](CCC(=O)O)NC(=O)[C@H](CCC(=O)O)NC(=O)CCc1noc(-c2ccccc2)n1 [Compound 26, (S)-5-amino-4-((S)-4-carboxy-2-(3-(5-phenyl-1,2,4-oxadiazol-3-yl)propanamido)butanamido)-5-oxopentanoic acid] | – | > 5000 nM | > 5000 nM | – | > 5000 nM | > 1000 nM | > 5000 nM | > 1000 nM | > 1000 nM | > 5000 nM | – | do not have any inhibitory activity | –
6 | NC(=O)[C@H](CCC(=O)O)NC(=O)[C@H](CCC(=O)O)NC(=O)CCc1csc(-c2ccccc2)n1 [Compound 27, (S)-5-amino-4-((S)-4-carboxy-2-(3-(2-phenylthiazol-4-yl)propanamido)butanamido)-5-oxopentanoic acid] | – | > 1000 nM | > 1000 nM | – | > 1000 nM | > 5000 nM | > 5000 nM | > 5000 nM | 900 nM | > 5000 nM | – | do not have any inhibitory activity | –
7 | NC(=O)CC[C@H](NC(=O)[C@H](CCC(=O)O)NC(=O)CCc1ccc(-c2cc(-c3ccccc3)cs2)cc1)C(N)=O [Compound 99, (S)-5-((S)-1,5-diamino-1,5-dioxopentan-2-ylamino)-5-oxo-4-(3-(4-(4-phenylthiophen-2-yl)phenyl)propanamido)pentanoic acid] | > 10000 nM | > 1000 nM | > 10000 nM | > 10000 nM | > 1000 nM | > 5000 nM | > 1000 nM | 5.4 nM | 522 nM | > 1000 nM | > 100 | – | –
8 | NC(=O)[C@H](CC(=O)O)NC(=O)[C@H](CCC(=O)O)NC(=O)CCc1ccc(-c2cc(-c3ccccc3)cs2)cc1 [Compound 101, (S)-5-((S)-1-amino-3-carboxy-1-oxopropan-2-ylamino)-5-oxo-4-(3-(4-(4-phenylthiophen-2-yl)phenyl)propanamido)pentanoic acid] | > 100000 nM | > 1000 nM | > 5000 nM | > 100000 nM | 379 nM | > 5000 nM | 571 nM | 2.56 nM | 933 nM | > 1000 nM | > 100 | – | –
9 | NC(=O)[C@H](CCCC(=O)O)NC(=O)[C@H](CCC(=O)O)NC(=O)CCc1ccc(-c2cc(-c3ccccc3)cs2)cc1 [Compound 103, (S)-6-amino-5-((S)-4-carboxy-2-(3-(4-(4-phenylthiophen-2-yl)phenyl)propanamido)butanamido)-6-oxohexanoic acid] | > 10000 nM | > 1000 nM | > 5000 nM | > 5000 nM | 656 nM | > 5000 nM | 845 nM | 2.9 nM | 563 nM | > 1000 nM | > 100 | – | –
10 | N=c1ccc2c(-c3cc(C(=O)NCCCOCCOCCOCCCNC(=O)[C@H](CCC(=O)O)NC(=O)[C@H](CCC(=O)O)NC(=O)CCc4ccc(-c5cc(-c6ccccc6)cs5)cc4)ccc3C(=O)O)c3ccc(N)c(S(=O)(=O)O)c3oc-2c1S(=O)(=O)O [Compound 108] | – | – | – | – | – | – | – | – | – | – | – | – | Ki (MMP-1h): > 10000 nM; Selectivity factor/MMP12, MMP-1h (MMP-1h): 670; Ki (MMP-2h): > 2500 nM; Selectivity factor/MMP12, MMP-2h (MMP-2h): 170; Ki (MMP-3h): > 10000 nM; Selectivity factor/MMP12, MMP-3h (MMP-3h): 670; Ki (MMP-7h): > 10000 nM; Selectivity factor/MMP12, MMP-7h (MMP-7h): 670; Ki (MMP-8h): > 2500 nM; Selectivity factor/MMP12, MMP-8h (MMP-8h): 170; Ki (MMP-9h): > 5000 nM; Selectivity factor/MMP12, MMP-9h (MMP-9h): 333; Ki (MMP-10h): 833 nM; Selectivity factor/MMP12, MMP-10h (MMP-10h): 55; Ki (MMP-12h): 15 nM; Selectivity factor/MMP12, MMP-12h (MMP-12h): 1; Ki (MMP-13h): > 1000 nM; Selectivity factor/MMP12, MMP-13h (MMP-13h): 66; Ki (MMP-14h): > 10000 nM; Selectivity factor/MMP12, MMP-14h (MMP-14h): 670

Reference: patent publication US8691753B2 (priority 2009, dated 2014)
